The text below walks through data of US20220144838A1, “Compounds as Inhibitors of Macrophage Migration Inhibitory Factor” (NANJING IMMUNOPHAGE BIOTECH CO., LTD., priority 2019, published 2022).

Assay [1] deals with T1, biotinylated human MIF / MIF receptor ectodomain (sCD74) (Homo sapiens, UniProt P14174).
T1 construct: made in house
T1 sequence (P14174 2-115 limits assumed): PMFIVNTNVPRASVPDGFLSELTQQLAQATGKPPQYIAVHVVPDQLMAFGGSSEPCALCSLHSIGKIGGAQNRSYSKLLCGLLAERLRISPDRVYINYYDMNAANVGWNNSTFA
Description: MIF-CD74 binding assay. Conditions: FIGS. 9-12; read-out: pIC50 MIF-CD74 binding (converted). As to the method:
The assay measures the ability of a compound to inhibit the binding of MIF with its receptor CD74 in vitro. 96-well plates were coated with recombinant MIF receptor ectodomain (sCD74=CD7473-232), washed 4 times, and blocked with Superblock (Pierce Biotechnology) at 4° C. overnight. Test compounds, which were used at a top final assay concentration of 33.3 μM, diluted in assay medium with 1:3 dilutions to produce 10 point concentration responses, were pre-incubated with biotinylated human MIF (2 ng/μl) (Roche Applied Sciences) prepared recombinantly for 30 minutes at room temperature. The mixtures then were added to wells for overnight incubation at 4° C. The wells were washed 4 times and strepavidin-conjugated alkaline phosphatase (R&D Systems) was added for one hour incubation at room temperature. After additional washes, 60 μl/well of p-nitrophenyl phosphate (Sigma) substrate was added. Absorbance at 405 nm was plotted as percent A405 relative to wells containing biotinylated human MIF alone. Each plot represented at least three independently performed assays, and each data point depicts a SEM≤10%. Each test compound was analyzed over 10-12 concentrations, and over a ˜500-fold concentration range.
Selected examples were tested in the MIF-CD74 binding assay. The data mentioned below represents a mean pIC50 value of multiple test results. It is understood that the data illustrated below may have reasonable variation depending on the specific conditions and procedures used by the person conducting the testing.

The next assay concerns the target T2, MIF (Homo sapiens, UniProt P14174).
T2 sequence (P14174 2-115 limits assumed): T1 sequence (P14174 2-115 limits assumed)
Put plainly: MIF tautomerase assay using pHPP as substrate. The format is biochemical. Conditions: mean of multiple test results. The essentials: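 Cell-free keto-to-enol tautomerization of pHPP, enol product detected spectrophotometrically as borate complex. Final 3 nM MIF and 1.5 mM ketonic pHPP in DPBS/boric acid buffer with 0.025% BSA and 300 μM CHAPS, pH 6.0, room temperature; initial rates from absorbance slopes give mean pIC50.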

The next assay deals with BV2 cells. Description: BV2 cell proliferation assay (CCK-8). The format is cell-based. The following applies: Mus musculus, BV-2, 48 h treatment, FIGS. 6-8, read-out: pIC50 BV2 cell proliferation (converted). The text has this: The assay measures the ability of a compound to inhibit cell proliferation using Cell Counting Kit-8 (CCK-8), which allows sensitive colorimetric assays for the determination of cell viability in cell proliferation and cytotoxicity assays. The highly water-soluble tetrazolium salt, WST-8, is reduced by dehydrogenase activities in cells to give a yellow-color formazan dye, which is soluble in the tissue culture media. The amount of the formazan dye, generated by the activities of dehydrogenases in cells, is directly proportional to the number of living cells.
The assay was performed based on the instruction of the manufacture (Dojindo Molecular Technologies Inc., Rockville, Md., USA). To start the assay, BV2 cells were seeded at a density of […] into 96-well plates and treated with test compounds, which were used at a top final assay concentration of 33.3 μM, diluted in assay medium with 1:3 dilutions to produce 10 point concentration responses, for 48 h. After incubation, the CCK-8 solution (10 μl) was added to each well of the plate and the plates were incubated in incubator at 37° C. for 3 h. Absorbance was recorded three times independently using a microplate reader (Bio-Rad Laboratories, Richmond, Calif., USA) at 450 nm.
Selected examples were tested in the BV2 cell proliferation assay. The data mentioned below represents a mean pIC50 value of multiple test results. It is understood that the data illustrated below may have reasonable variation depending on the specific conditions and procedures used by the person conducting the testing.

The subject of the next assay is 4T1 cells. Put plainly: 4T1 breast cancer syngeneic mouse model. It counts as in vivo, Balb/c mice. The following applies: 4T1 model; IMG-321 20 mg/kg b.i.d. combined with gemcitabine 3 mg/kg once every 10 days. As to the method: Female Balb/c mice (5-6 weeks old) were purchased from Charles River Laboratories (Hollister, Calif.). Animals were housed and treated in accordance with Institutional Animal Care and Use Committee guidelines. For the generation of 4T1 breast cancer model, 1×10^5 4T1 cells were injected orthotopically into the mammary fat pad. For the generation of lung cancer model, 1×10^5 LLC cells were injected subcutaneously. For the generation of murine melanoma model, 1×10^5 B16-F10 cells were injected subcutaneously. Test compounds were administered by I.P. injection in a dose range of 10-100 mg/kg starting on study day 1 (7 days after tumor implantation). Control groups received vehicle (water) twice daily by I.P. injection. Tumor volume measured by digital caliper (length×width×width/2) and body weight were recorded three times per week. Animals were euthanized when tumors necrotized or volumes reached 2000 mm3.
One-way Anova, student's T test, and Mann-Whitney test performed by GraphPad5 PRISM software (GraphPad Software, Inco, San Diego, Calif., USA) were used according to different experimental conditions. P value<0.05 was considered statistically significant. Significance is indicated in the figures by asterisks *p<0.05, **p<0.01.
Female Balb/C mice (8 weeks old) were injected with 1×10^5 4T1 cells into the mammary fat pad. […] Tumor volume was measured by digital caliper (length×width×width/2). […]

[2] abbreviates: inhibition of the MIF enzyme in vitro, read-out: Tautomerase Inhibition pIC50 (converted).

Where two headings read alike, the source gives them in different places.

Take `COc1ccc2c(cnn2-c2nc(N3CCN(c4ccc(O)cc4)CC3)nc3c2ncn3CC(=O)O)c1` [Example 51, 2-(2-(4-(4-hydroxyphenyl)piperazin-1-yl)-6-(5-methoxy-1H-indazol-1-yl)-9H-purin-9-yl)acetic acid]: the IC50 was 8910 nM in assay [1]; ≤ 100 nM at MIF (FIGS. 1-5, read-out: pIC50 MIF tautomerase activity (converted)); 10 to 97.7 nM on MIF (setting [2]).

As to `COc1ncccc1-n1cnc2c(C)nc(N3CCN(c4ccc(O)cc4)CC3)nc21` [Example 62, 4-(4-(9-(2-methoxypyridin-3-yl)-6-methyl-9H-purin-2-yl)piperazin-1-yl)phenol], the IC50 in assay [1] is 26300 nM; on MIF (setting [2]), 10 to 97.7 nM.

As to `Nc1nc(N2CCN(c3ccc(O)cc3)CC2)nc2c1ncn2-c1ccncc1` [Example 80, 4-(4-(6-amino-9-(pyridin-4-yl)-9H-purin-2-yl)piperazin-1-yl)phenol], the values for the IC50 with BV2 cells and on MIF (setting [2]) were 5020 nM and 10 to 97.7 nM, respectively.

As for `Nc1nc(N2CCN(c3ccc(O)cc3)CC2)nc2c1ncn2-c1cncnc1` [Example 81, 4-(4-(6-amino-9-(pyrimidin-5-yl)-9H-purin-2-yl)piperazin-1-yl)phenol], the IC50 is 23100 nM with BV2 cells and 1000 to 9770 nM on MIF (setting [2]).

On to `Oc1ccc(N2CCN(c3nc(NCC4CC4)c4ncn(-c5cccnc5)c4n3)CC2)cc1` [Example 95, 4-(4-(6-((cyclopropylmethyl)amino)-9-(pyridin-3-yl)-9H-purin-2-yl)piperazin-1-yl)phenol], for which the IC50 in the assay on BV2 cells was 6920 nM; on MIF (setting [2]) it was 1000 to 9770 nM.

As to `Nc1nc(N2CCN(c3ccc(O)cc3)CC2)nc2c1ncn2-c1cccnc1` [Example 115, 4-(4-(6-amino-9-(pyridin-3-yl)-9H-purin-2-yl)piperazin-1-yl)phenol], the IC50 in assay [1] was 2610 nM; at MIF (setting [2]), 100 to 977 nM.

Take `O=C(O)CCn1cnc2c(-n3ncc4ccccc43)nc(N3CCN(c4ccc(O)cc4)CC3)nc21` [Example 148, 4-(2-(4-(4-hydroxyphenyl)piperazin-1-yl)-6-(1H-indazol-1-yl)-9H-purin-9-yl)propanoic acid]: the IC50 was 4900 nM in assay [1] and 10 to 97.7 nM at MIF (setting [2]).

Consider `Nc1ccn([C@@H]2O[C@H](CO)[C@@H](O)C2(F)F)c(=O)n1` [Gemcitabine, gemcitabine], for which the “breast cancer growth (tumor volume), combination” value with 4T1 cells is “Synergistically Inhibited Breast Cancer Growth”.
